The test system of the test is P388 leukemia ip, CD2F1 mice, survival T/C. As to the kind of experiment: NCI In Vivo Anticancer Drug Screen. Data for tumor model P388 Leukemia (intraperitoneal) in CD2F1 (CDF1) mice. The conditions noted are these: endpoint: median survival time, higher = longer survival. In outline:
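Mice carrying the transplanted tumor received test compound or vehicle. Survival was recorded in each group, and the value is the treated-group measurement divided by that of the vehicle-treated control group.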

The mark [1] stands for this setting: dose: 50.0 mg/kg/injection, schedule: Q01DX005 (ip), vehicle: saline with Tween-80.
Setting [2] is: dose: 100.0 mg/kg/injection, schedule: Q01DX005 (ip), vehicle: saline with Tween-80.
[3] abbreviates: dose: 200.0 mg/kg/injection, schedule: Q01DX005 (ip), vehicle: saline with Tween-80.
Setting [4] is: dose: 25.0 mg/kg/injection, schedule: Q01DX009 (ip), vehicle: saline with Tween-80.
Setting [5] is: dose: 50.0 mg/kg/injection, schedule: Q01DX009 (ip), vehicle: saline with Tween-80.
Where [6] appears, read: dose: 60.0 mg/kg/injection, schedule: Q01DX005 (ip), vehicle: saline with Tween-80.
[7] abbreviates: dose: 120.0 mg/kg/injection, schedule: Q01DX005 (ip), vehicle: saline with Tween-80.
Setting [8] is: dose: 240.0 mg/kg/injection, schedule: Q01DX005 (ip), vehicle: saline with Tween-80.
Setting [9] is: dose: 50.0 mg/kg/injection, schedule: Q01DX009 (ip), vehicle: Klucel (hydroxypropylcellulose) (HPC).
Setting [10] is: dose: 100.0 mg/kg/injection, schedule: Q01DX009 (ip), vehicle: Klucel (hydroxypropylcellulose) (HPC).
The mark [11] stands for this setting: dose: 200.0 mg/kg/injection, schedule: Q01DX009 (ip), vehicle: Klucel (hydroxypropylcellulose) (HPC).
Setting [12] is: dose: 100.0 mg/kg/injection, schedule: Q01DX009 (ip), vehicle: saline with Tween-80.
Where [13] appears, read: dose: 200.0 mg/kg/injection, schedule: Q01DX009 (ip), vehicle: saline with Tween-80.
The mark [14] stands for this setting: dose: 400.0 mg/kg/injection, schedule: Q01DX009 (ip), vehicle: saline with Tween-80.
Setting [15] is: dose: 100.0 mg/kg/injection, schedule: Q01DX001 (ip), vehicle: Klucel (hydroxypropylcellulose) (HPC).
[16] abbreviates: dose: 200.0 mg/kg/injection, schedule: Q01DX001 (ip), vehicle: Klucel (hydroxypropylcellulose) (HPC).

Values joined by “and” are separate entries in the source; they are usually repeats but may differ in a detail not shown here. Equal values may be shown once. Toxic doses and inconclusive results are not listed. Square brackets hold non-standard residues; d marks the D form. Peptide text beside a SMILES is read from it. ξ: configuration not given here. ξH = NC(Cc1c[nH]cn1)C(=O)O

For `CC(C)(CO)CBr`, the T/C is 100 % of control (dose: 100.0 mg/kg/injection, schedule: Q01DX009 (ip), vehicle: saline sonified); 95 % of control (dose: 200.0 mg/kg/injection, schedule: Q01DX009 (ip), vehicle: saline sonified); 95 % of control (dose: 400.0 mg/kg/injection, schedule: Q01DX009 (ip), vehicle: saline sonified).

Regarding `O=S(=O)(O)CN(CS(=O)(=O)O)c1nc(N(CS(=O)(=O)O)CS(=O)(=O)O)nc(N(CS(=O)(=O)O)CS(=O)(=O)O)n1`, the T/C under setting [1] is 92 % of control, the T/C under setting [2] was 99 % of control and the T/C under setting [3] was 101 % of control.

Consider `CCOC(=O)/C=C(/C)SC1=CC(=O)C=CC1=O`, for which the T/C runs as follows: under setting [1], 92 % of control; under setting [2], 92 % of control; under setting [3], 100 % of control.

In the case of `CN(C)C=Nc1ccc(Cl)cc1`, the T/C was 99 % of control under setting [4] and 105 % of control under setting [5].

For the molecule `CN(O)C1(/C(N)=N/O)C(C2COC(C)(C)O2)OC2OC(C)(C)OC21` (configuration not stated), the T/C is 106 % of control (dose: 100.0 mg/kg/injection, schedule: Q04DX002 (ip), vehicle: Klucel (hydroxypropylcellulose) (HPC)); 106 % of control (dose: 200.0 mg/kg/injection, schedule: Q04DX002 (ip), vehicle: Klucel (hydroxypropylcellulose) (HPC)); 105 % of control (dose: 400.0 mg/kg/injection, schedule: Q04DX002 (ip), vehicle: Klucel (hydroxypropylcellulose) (HPC)).

Turning to `CCOC(=O)C1(C#N)C(c2ccccc2)C(OC)(OC)C1(OC)OC` (configuration not stated), the T/C runs as follows: (dose: 60.0 mg/kg/injection, schedule: Q01DX005 (ip), vehicle: Klucel (hydroxypropylcellulose) (HPC)) 100 % of control; (dose: 120.0 mg/kg/injection, schedule: Q01DX005 (ip), vehicle: Klucel (hydroxypropylcellulose) (HPC)) 102 % of control; (dose: 240.0 mg/kg/injection, schedule: Q01DX005 (ip), vehicle: Klucel (hydroxypropylcellulose) (HPC)) 99 % of control.

`O=c1nnc(O)c2ccn(O)cc1-2`: the T/C reads like this: under setting [6], 99 % of control; under setting [7], 103 % of control; under setting [8], 99 % of control.

Consider `COc1ccc(Cc2cc(N=NC(N)=O)c(C)cc2O)cc1`, for which the T/C is 106 % of control (dose: 12.5 mg/kg/injection, schedule: Q01DX005 (ip), vehicle: Klucel (hydroxypropylcellulose) (HPC)); 94 % of control (dose: 25.0 mg/kg/injection, schedule: Q01DX005 (ip), vehicle: Klucel (hydroxypropylcellulose) (HPC)); 97 % of control (dose: 50.0 mg/kg/injection, schedule: Q01DX005 (ip), vehicle: Klucel (hydroxypropylcellulose) (HPC)).

As to `c1cnc2c(NC3CCCCC3)ncnc2n1`, the T/C is 100 % of control under setting [9], 98 % of control under setting [10] and 97 % of control under setting [11].

For `COc1cc(Cl)c(CC(=O)c2c[nH]c3ccccc23)cc1OC`, the T/C runs as follows: (dose: 6.25 mg/kg/injection, schedule: Q01DX009 (ip), vehicle: saline with Tween-80) 94 % of control; (dose: 12.5 mg/kg/injection, schedule: Q01DX009 (ip), vehicle: saline with Tween-80) 92 % of control; under setting [4], 100 % of control; under setting [5], 93 % of control.

In the case of `CCOC(=O)C1(CC)C(=O)C=C(c2ccccc2)CC1c1ccccc1` (configuration not stated), the T/C by setting is: under setting [10], 99 % of control; under setting [11], 94 % of control; (dose: 400.0 mg/kg/injection, schedule: Q01DX009 (ip), vehicle: Klucel (hydroxypropylcellulose) (HPC)) 94 % of control.

On to `Nc1nnc(/C=C/c2ccc(Cl)c(Cl)c2)o1`, for which the T/C is, setting by setting: under setting [6], 95 % of control; under setting [7], 103 % of control; under setting [8], 102 % of control.

`O=C(c1ccccc1)c1ccc2c(c1)-c1ccccc1-2`: the T/C runs as follows: under setting [12], 100 % of control; under setting [13], 104 % of control; under setting [14], 95 % of control.

Consider `CC1=C[P+](c2ccccc2)(c2ccccc2)C=C(C)O1`, for which the T/C was 96 % of control (dose: 3.12 mg/kg/injection, schedule: Q01DX005 (ip), vehicle: saline); 105 % of control (dose: 6.25 mg/kg/injection, schedule: Q01DX005 (ip), vehicle: saline); 105 % of control (dose: 12.5 mg/kg/injection, schedule: Q01DX005 (ip), vehicle: saline).

For the molecule `COc1cccc2c1C(=O)c1c(O)c3c(c(O)c1C2=O)CC(O)(/C(C)=N/NC(=O)CCCCCCC(=O)N/N=C(\C)C1(O)Cc2c(O)c4c(c(O)c2C(OC2CC(N)C(O)C(C)O2)C1)C(=O)c1c(OC)cccc1C4=O)CC3OC1CC(N)C(O)C(C)O1` (configuration not stated), the T/C by setting is: (dose: 2.0 mg/kg/injection, schedule: Q01DX009 (ip), vehicle: water) 162 % of control; (dose: 4.0 mg/kg/injection, schedule: Q01DX009 (ip), vehicle: water) 212 % of control; (dose: 8.0 mg/kg/injection, schedule: Q01DX009 (ip), vehicle: water) 245 % of control; (dose: 16.0 mg/kg/injection, schedule: Q01DX009 (ip), vehicle: water) 87 % of control.

As to `CCN(CC)c1ccc2cc(-c3nc4ccccc4s3)c(=O)oc2c1`, the T/C (dose: 100.0 mg/kg/injection, schedule: Q04DX003 (ip), vehicle: Klucel (hydroxypropylcellulose) (HPC)) was 92 % of control; the T/C (dose: 200.0 mg/kg/injection, schedule: Q04DX003 (ip), vehicle: Klucel (hydroxypropylcellulose) (HPC)) was 92 % of control; the T/C (dose: 400.0 mg/kg/injection, schedule: Q04DX003 (ip), vehicle: Klucel (hydroxypropylcellulose) (HPC)) was 104 % of control.

Take `O=C(Nc1cc(-c2ccccc2)nn1-c1ccccc1)c1ccc(Cl)cc1`: the T/C by setting is: under setting [6], 99 % of control and 94 % of control; under setting [7], 93 % of control; under setting [8], 87 % of control and 94 % of control.

As to `Cc1ccccc1NC(=O)Nc1ccc(N(CCCl)CCCl)cc1`, the T/C is 92 % of control (dose: 50.0 mg/kg/injection, schedule: Q01DX001 (ip), vehicle: Klucel (hydroxypropylcellulose) (HPC)); 109 % of control under setting [15]; 120 % of control under setting [16].

As to `O=C(/C=C/c1ccccc1)c1ccccc1`, the T/C is 100 % of control (dose: 12.5 mg/kg/injection, schedule: Q01DX009 (ip), vehicle: Klucel (hydroxypropylcellulose) (HPC)); 105 % of control (dose: 25.0 mg/kg/injection, schedule: Q01DX009 (ip), vehicle: Klucel (hydroxypropylcellulose) (HPC)); 100 % of control under setting [9]; 108 % of control under setting [10].

For the molecule `O=C(CO)N(CCO)CCO`, the T/C reads like this: (dose: 50.0 mg/kg/injection, schedule: Q01DX009 (ip), vehicle: saline) 98 % of control; (dose: 100.0 mg/kg/injection, schedule: Q01DX009 (ip), vehicle: saline) 95 % of control; (dose: 200.0 mg/kg/injection, schedule: Q01DX009 (ip), vehicle: saline) 96 % of control.

In the case of `CC(=O)c1ccc(NN=NCCF)cc1`, the T/C by setting is: (dose: 1.56 mg/kg/injection, schedule: Q01DX009 (ip), vehicle: water) 107 % of control; (dose: 6.25 mg/kg/injection, schedule: Q01DX009 (ip), vehicle: water) 154 % of control; (dose: 12.5 mg/kg/injection, schedule: Q01DX009 (ip), vehicle: distilled water + Tween-80) 271 % of control.

For `NCC(=O)NCC(=O)NC(Cc1cnc[nH]1)C(=O)O` (stereo not drawn) (H-Gly-Gly-[ξH]-OH), the T/C is 103 % of control (dose: 50.0 mg/kg/injection, schedule: Q01DX005 (ip), vehicle: saline); 96 % of control (dose: 100.0 mg/kg/injection, schedule: Q01DX005 (ip), vehicle: saline); 104 % of control (dose: 200.0 mg/kg/injection, schedule: Q01DX005 (ip), vehicle: saline).

For `CC(C)C(C(O)c1ccccc1)[N+](=O)[O-]` (configuration not stated), the T/C under setting [12] is 104 % of control, the T/C under setting [13] was 95 % of control and the T/C under setting [14] was 86 % of control.

For the molecule `CCCCCCCCCCCCCCCCCN1CCS(=O)(=O)CC1`, the T/C under setting [9] was 100 % of control, the T/C under setting [10] was 94 % of control and the T/C under setting [11] was 88 % of control.

`Cc1ccc(S(=O)(=O)NNC(=O)c2ccccc2Nc2cccc(Br)c2)cc1`: the T/C was 97 % of control under setting [15]; 97 % of control under setting [16]; 98 % of control (dose: 400.0 mg/kg/injection, schedule: Q01DX001 (ip), vehicle: Klucel (hydroxypropylcellulose) (HPC)).

The values are drawn from PubChem BioAssay AID330 (DTP/NCI, 2004).
